Legend:
[1] = system: SUM159 cells; assay: Cleaved caspase-3 immunoblot; assay type: cell-based, human; conditions: 24 hours
[2] = system: T11 cells; assay: Cell viability assay of melittin variants, T11; assay type: cell-based, murine; conditions: t-test p=0.652
Protocol: FIG. 5 presents the lack of anticancer activity of DEDE-melittin, and the breast cancer cell selectivity of the melittin fusion peptide RGD1-melittin. FIG. 5A presents cell viability assays of TNBC (SUM159) and HER2-enriched (SKBR3) cells treated with DEDE-melittin for 24 hours. FIG. 5B presents cell viability assays of T11 cells treated with melittin, RGD1-melittin, SV40-melittin, TAT-melittin and DEDE-melittin. FIG. 5C presents cell viability assays of human dermal fibroblasts (HDFa) and SUM159 treated with melittin (top) and RGD1-melittin (bottom) for 24 hours.
To assess the functional role of the positive (K21RKR24) sequence (SEQ ID NO: 4) in the C-terminus of melittin, a negatively charged melittin peptide (D21EDE24-melittin; SEQ ID NO: 6) was designed. These negative residues were predicted to disrupt the binding of melittin with the plasma membrane. […] However, the potency of melittin and SV40-melittin were greater than TAT-melittin, which could be due to the larger size of TAT.

[3] = system: SUM159 cells; assay: Immunofluorescence subcellular localization with anti-melittin antibody; assay type: cell-based, human; conditions: 30 minutes, IC50 concentrations
[4] = system: T11 cells; assay: Cell viability, combination with docetaxel; assay type: cell-based, murine; conditions: T11, 48 hours
Protocol: FIG. 15 presents the results of cell viability assays of T11 breast cancer cells treated with melittin or RGD1-melittin alone and in combination with docetaxel for 48 hours. Representative plots of the combination treatments are presented as mean±SEM.
The murine p53 TNBC cell line T11 was treated with docetaxel in combination with either melittin or RGD1-melittin, and cell viability assays were conducted to determine the combination effect between the treatments (FIG. 15).

[5] = system: T11 cells; assay: Cell viability, combination with omomyc; assay type: cell-based, murine; conditions: T11, 24 hours
Protocol: FIG. 16 presents the results of cell viability assays of T11 breast cancer cells treated with melittin or RGD1-melittin alone and in combination with omomyc for 24 hours. Representative plots of the combination treatments are presented as mean±SEM.
The murine p53 TNBC cell line T11 was treated with omomyc in combination with either melittin or RGD1-melittin, and cell viability assays were conducted to determine the combination effect between the treatments (FIG. 16).

[6] = system: COV362 cells; assay type: cell-based
Protocol: (§1) The OVCAR3 and COV362 ovarian cancer cell lines were treated with active RGD1-melittin and mutant RGD1-melittin (DEDE-RGD1-melittin). The COV362 cells were cultured in DMEM low glucose medium supplemented with 10% FBS. The OVCAR3 cells were grown in RPMI medium supplemented with 20% FBS. Cells were seeded overnight at a density of 5000 cells/p96-well plate and treated with active RGD1-melittin and mutant RGD1-melittin (RGD1-DEDE melittin), for 24 h at concentrations up to 20 µM. After treatments, cell viability was assessed using the CellTiter-Glo® assay according to the manufacturer's protocol (Promega; NSW, Australia). Luminescence signals were measured using the EnVision Multilabel Plate Reader (PerkinsElmer Inc.; Waltham, MA, USA). IC50s were calculated and transformed 95% confidence intervals provided by GraphPad Prism 6 software analysis (GraphPad Software Inc., San Diego, CA, USA).

[7] = system: OVCAR3 cells; assay type: cell-based
Protocol: as §1

[8] = system: Ki-67 and PD-L1 in T11, SUM159 and SKBR3 cells; assay: Immunofluorescence of Ki-67 and PD-L1; assay type: cell-based; conditions: 24 h at IC50 concentrations, all three cell lines
Protocol: The expression of PD-L1 of TNBC cells (T11 and SUM159) and HER2-enriched breast cancer cells (SKBR3) treated with active RGD1-melittin and mutant RGD1-melittin (DEDE RGD1-melittin) was measured using immunofluorescence.
Cells were seeded overnight on coverslips at a density of 3×105 in a p24-well plate coated with poly-L-lysine (Sigma-Aldrich) for 20 min and then washed twice with purified water. […] The cells were washed three times with PBS and then incubated with a goat α-mouse secondary Alexa Fluor 488-conjugated antibody (Thermo Fisher Scientific #A11001, 1:500) and Hoechst-33258 (1:5000) in PBS for 1 h at room temperature. After three more washes of PBS, the coverslip containing cells were mounted onto glass […] with SlowFade Diamond Antifade Mountant (Thermo Fisher Scientific). Slides were imaged using the confocal fluorescence Nikon Ti inverted microscope. Images were taken at 40× magnification and processed using ImageJ.

[9] = system: PD-L1 in T11, SUM159 and SKBR3 cells; assay: qRT-PCR of PD-L1 expression; assay type: cell-based; conditions: 24 h at IC50; p<0.005 T11, p<0.05 SUM159, p<0.005 SKBR3
Protocol: The level of PD-L1 expression was also measured in T11, SUM159 and SKBR3 treated with active RGD1-melittin and mutant RGD1-melittin peptides, or vehicle treated only, using qRT-PCR.
Cells were seeded overnight at a density of 3×105 in a p6-well plate. […] Cells were washed once with PBS before RNA was extracted from the cells using QIAzol Lysis. Reagent (QIAGEN) according to manufacturer's instructions. 500 ng of purified total RNA was used as the template for cDNA synthesis using the High Capacity cDNA Reverse Transcription Kit (Applied Biosystems). Relative quantification of PD-L1 transcript expression was obtained by quantitative real-time PCR (qRT-PCR) using fluorescent TaqMan probes (Applied Biosystems) and run on the ViiA 7TM Real-Time PCR machine (Applied Biosystems). Data were analysed by QuantStudio Real-Time PCR Software (Applied Biosystems) and results were expressed as fold change compared to untreated cells, respectively, after normalization against the GAPDH mRNA levels.

[10] = system: T11, OVCAR3, SUM159 and SKBR3 cells; assay: Cell viability, RGD1-melittin with docetaxel; assay type: cell-based; conditions: 24 h, non-constant ratio
Protocol: (§2) Cell viability assays of T11, OVCAR3, SUM159 and SKBR3 cells treated with RGD1-melittin alone and in combination with docetaxel were performed. Cells were seeded overnight at a density of 5000 cells/p96-well plate and treated with active RGD1-melittin alone or combined with docetaxel and administered at concentrations indicated in a non-constant ratio in the respective cell lines for 24 h. Cell viability was assessed using the CellTiter-Glo® assay.
(§3) The combination effect for different fractions of cells impacted in each combination were calculated using the Chou and Talalay algorithm included in the freely available CompuSyn software. Combination index (CI)<1 means synergism, CI=1 means additive and CI>1 means antagonism.

[11] = system: T11, OVCAR3 and COV362 cells; assay: Cell viability, RGD1-melittin with cisplatin; assay type: cell-based; conditions: 24 h, non-constant ratio
Protocol: as §2, with “T11, OVCAR3, and COV362” for “T11, OVCAR3, SUM159 and SKBR3”, “OVCAR3, and COV362 cells treated” for “SUM159 and SKBR3 cells treated”, “combination with cisplatin were performed.” for “combination with docetaxel were performed.”
as §3

[12] = system: SUM159 cells; conditions: 24 hours, mean±SEM
Protocol: To assess anticancer efficacy and selectivity, both venom from European honeybees collected in Perth, Australia and melittin peptide were evaluated in dose-response assays in a panel of cell lines representative of the intrinsic breast cancer subtypes and in non-transformed cells.

## CC[C@H](C)[C@H](NC(=O)CNC(=O)[C@H](CCCCN)NC(=O)[C@H](CCCCN)NC(=O)[C@H](CC(C)C)NC(=O)[C@H](CCCNC(=N)N)NC(=O)CNC(=O)[C@H](CC(C)C)NC(=O)[C@H](CC(=O)O)NC(=O)CNC(=O)[C@H](CCCNC(=N)N)NC(=O)CNC(=O)[C@@H](N)Cc1c[nH]cn1)C(=O)NCC(=O)N[C@@H](C)C(=O)N[C@H](C(=O)N[C@@H](CC(C)C)C(=O)N[C@@H](CCCCN)C(=O)N[C@H](C(=O)N[C@@H](CC(C)C)C(=O)N[C@H](C(=O)N[C@H](C(=O)NCC(=O)N[C@@H](CC(C)C)C(=O)N1CCC[C@H]1C(=O)N[C@@H](C)C(=O)N[C@@H](CC(C)C)C(=O)N[C@H](C(=O)N[C@@H](CO)C(=O)N[C@@H](Cc1c[nH]c2ccccc12)C(=O)N[C@H](C(=O)N[C@@H](CCCCN)C(=O)N[C@@H](CCCNC(=N)N)C(=O)N[C@@H](CCCCN)C(=O)N[C@@H](CCCNC(=N)N)C(=O)N[C@@H](CCC(N)=O)C(=O)N[C@@H](CCC(N)=O)C(=O)O)[C@@H](C)CC)[C@@H](C)CC)[C@@H](C)O)[C@@H](C)O)C(C)C)C(C)C [RGD1-melittin]
[1]
  induction of apoptosis (cleaved caspase-3): confirmed the anticancer activity
[2]
  IC50 compared to parental melittin: not significantly different compared to parental melittin
[3]
  subcellular localization / anti-melittin staining: distinctively targeted to the plasma membrane alone
[4]
  combination effect with docetaxel on cell viability: beneficial effect when combined with docetaxel
[5]
  combination effect with omomyc on cell viability: beneficial effect when combined with omomyc
[6]; COV362
  fold lower IC50 than active melittin: approximately 3.7 fold
[6]; COV362, 24 h
  IC50: 2100 nM
[7]; OVCAR3
  fold lower IC50 than active melittin: approximately 6 fold
[7]; OVCAR3, 24 h
  IC50: 3360 nM
[8]
  PD-L1 expression (immunofluorescence): reduced
  cell proliferation (Ki-67): reduced
[9]
  level of PD-L1 (qRT-PCR): significantly reduce
[10]
  sensitization to docetaxel (cell viability, combination index): significantly sensitized all four tested cell lines to docetaxel
[11]
  sensitization to cisplatin (cell viability, combination index): significantly sensitized all three tested cell lines to cisplatin
[12]
  ratio of the IC50s of HDFa/SUM159: 2.73±0.14
